# Experimental data as given in patent US20230028403A1, “METHOD WHICH BRINGS BENEFITS TO HEALTH AND/OR GROWTH OF USEFUL PLANTS” (ISHIHARA SANGYO KAISHA, LTD., priority 2019, published 2023).
# Key:
# Type in all cases: in vivo
# [1] = system: field corn (variety: SNOWDENT SH2933); assay: Test Example 8: above-ground height of field corn, agricultural field, 500 L/ha; conditions: 28th day
# Protocol: On the 28th day after the foliar application , the above-ground height of the field corn was measured, and the height ratio was calculated in accordance with the following formula.
# (§1) Height ratio (%)=(above-ground height in the treated plot)/(above-ground height in the untreated plot)×100
# [2] = system: field corn (variety: SNOWDENT SH2933); assay: Test Example 6: above-ground height of field corn, pot, 300 L/ha; conditions: dose 30 g/ha; (c) sodium polyoxyethylene alkyl ether phosphate 0.033 w/v %; 14th day
# Protocol: On the 14th day after the foliar application, the above-ground height of the field corn was measured, and the height ratio was calculated in accordance with the following formula.
# Height ratio (%)=(above-ground height in the treated plot)/(above-ground height in the untreated plot) ×100
# [3] = system: field corn (variety: PIONEERDENT 30N34); assay: Test Example 5: above-ground height of field corn, agricultural field, 300 L/ha; conditions: dose 30 g/ha; (c) polyoxyethylene hydrogenated castor oil 0.020 w/v %; 14th day
# Protocol: In an agricultural field having seeds of field corn (variety: PIONEERDENT 30N34, variety highly susceptible to component (a)) sown, when the field corn reached 3.1 to 3.5 leaf stage, an oil-based suspension containing the component (a) and the component (c) (polyoxyethylene hydrogenated castor oil), and a wettable powder containing the component (b) were diluted with water in an amount corresponding to 300 L/ha to prepare spray solutions, which were applied to foliage with a Teejet 80015VS nozzle. The concentration of the component (c) in the spray solution was 0.020 weight/volume percent. On the 14th day after the foliar application, the above-ground height of the field corn was measured, and the height ratio was calculated in accordance with the following formula. The above-ground height in the untreated plot was 76.7 cm.
# Height ratio (%) =(above-ground height in the treated plot)/(above-ground height in the untreated plot)×100
# [4] = system: field corn (variety: PIONEERDENT 30N34); assay: Test Example 4: above-ground height of field corn, pot, 300 L/ha; conditions: dose 120 g/ha; (c) polyoxyethylene hydrogenated castor oil 0.08 w/v %; 14th day
# Protocol: Upland field soil was put into a […] hectare pot, and seeds of field corn (variety: PIONEERDENT 30N34, variety highly susceptible to component (a)) were sown. When the field corn reached 3.5 to 4.0 leaf stage, an oil-based suspension containing the component (a) and the component (c) (polyoxyethylene hydrogenated castor oil), and a wettable powder containing the component (b) were diluted with water in an amount corresponding to 300 L/ha to prepare spray solutions. The concentration of the component (c) in the spray solution was 0.08 weight/volume percent. The spray solutions were applied to foliage with a small sprayer. On the 14th day after the foliar application, the above-ground height of the field corn was measured, and the height ratio was calculated in accordance with the following formula. The above-ground height in the untreated plot was 75.8 cm.
# as §1
# [5] = system: field corn (variety: SNOWDENT SH2933); assay: Test Example 7: above-ground height of field corn, agricultural field, 200 L/ha; conditions: 27th day
# Protocol: On the 27th day after the foliar application, the above-ground height of the field corn was measured, and the height ratio was calculated in accordance with the following formula.
# as §1
# [6] = dose 60 g/ha, (c) sodium polyoxyethylene alkyl ether phosphate 0.04 w/v %
# [7] = dose 90 g/ha, (c) sodium polyoxyethylene alkyl ether phosphate 0.06 w/v %
# [8] = dose 120 g/ha, (c) sodium polyoxyethylene alkyl ether phosphate 0.08 w/v %
# [9] = dose 20 g/ha, (c) polyoxyethylene hydrogenated castor oil 0.02 w/v %
# [10] = dose 30 g/ha, (c) polyoxyethylene hydrogenated castor oil 0.03 w/v %
# [11] = dose 40 g/ha, (c) polyoxyethylene hydrogenated castor oil 0.04 w/v %
# [12] = dose 60 g/ha, (c) polyoxyethylene hydrogenated castor oil 0.06 w/v %
# [13] = dose 80 g/ha, (c) polyoxyethylene hydrogenated castor oil 0.08 w/v %
# [14] = dose 120 g/ha, (c) polyoxyethylene hydrogenated castor oil 0.12 w/v %
smiles,measurement,setting,value
"COc1cc(OC)nc(NC(=O)NS(=O)(=O)c2ncccc2C(=O)N(C)C)n1 [Component (a), nicosulfuron]",Above-ground height,[1]; [6],107.2 cm
same,Height ratio,[1]; [6],81%
same,Above-ground height,[1]; [7],88.6 cm
same,Height ratio,[1]; [7],67%
same,Above-ground height,[1]; [8],86.3 cm
same,Height ratio,[1]; [8],65%
same,Above-ground height,[2],46.8 cm
same,Height ratio,[2],75%
same,Above-ground height,[3],66.6 cm
same,Height ratio,[3],87%
same,Above-ground height,[4],41.3 cm
same,Height ratio,[4],55%
same,Above-ground height,[5]; [9],125.5 cm
same,Height ratio,[5]; [9],86%
same,Above-ground height,[5]; [10],124.0 cm
same,Height ratio,[5]; [10],84%
same,Above-ground height,[5]; [11],129.9 cm
same,Height ratio,[5]; [11],88%
same,Above-ground height,[5]; [12],122.3 cm
same,Height ratio,[5]; [12],83%
same,Above-ground height,[5]; [13],110.7 cm
same,Height ratio,[5]; [13],75%
same,Above-ground height,[5]; [14],107.4 cm
same,Height ratio,[5]; [14],73%
